Reference: US9303042B2, “Triazolothienopyrimidine compound inhibitors of urea transporters and methods of using inhibitors” (The Regents of the University of California, priority 2012, dated 2016)

Target: T1, UT-B (Mus musculus, UniProt Q8VHL0)
T1 sequence (Q8VHL0 1-384): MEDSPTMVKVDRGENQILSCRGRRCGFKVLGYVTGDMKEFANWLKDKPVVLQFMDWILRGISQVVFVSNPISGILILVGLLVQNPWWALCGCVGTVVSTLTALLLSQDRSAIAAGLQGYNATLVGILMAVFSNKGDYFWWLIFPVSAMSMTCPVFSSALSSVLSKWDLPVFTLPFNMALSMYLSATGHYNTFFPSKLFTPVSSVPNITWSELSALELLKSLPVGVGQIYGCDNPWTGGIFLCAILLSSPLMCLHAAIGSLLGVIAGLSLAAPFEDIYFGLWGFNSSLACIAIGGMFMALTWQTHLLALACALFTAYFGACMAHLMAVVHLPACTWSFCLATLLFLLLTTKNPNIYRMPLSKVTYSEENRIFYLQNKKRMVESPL
Assay: Transepithelial urea transport in MDCK cells stably expressing UT-B
Type: cell-based
Details: UTBinh-14 10 μM
Procedure: UT-B selectivity and cytotoxicity were studied. Because of sequence similarities between UT-B and UT-A isoforms, UT-A inhibition was measured. Transepithelial urea transport was measured in MDCK cells stably expressing UT-A1, UT-A3, and UT-B. UT-A1 and UT-A3 are cAMP-regulated urea transporters expressed in kidney tubule epithelia (see, e.g., Frohlich et al., Am. J. Physiol. Cell Physiol. 291:C600-606 (2006); Tickle et al., Am. J. Physiol. Regul. Integr. Comp Physiol 0.297: R323-329 (2009); Stewart et al., Am. J. Physiol. Renal Physiol. 292:F1157-63 (2006)). MDCK cells were cultured on collagen-coated porous filters for measurement of urea accumulation in the apical solution following addition of urea to the basolateral solution.
cDNAs encoding mouse UT-A3 and UT-B were cloned into pcDNA3.1 and used to generate stably transfected MDCK cell lines. MDCK cells stably expressing rat UT-A1 (MDCK-UT-A1) (see, e.g., Frohlich et al., supra) were obtained as described (see, e.g., Levin et al., FASEB J., supra). Cells were cultured in DMEM containing 10% FBS and 0.5 mg/mL G418. […] Urea flux in the basolateral-to-apical direction across unstimulated and forskolin-stimulated cell layers was measured in response to a 15-mM urea gradient. […]

`CCc1ccc(S(=O)(=O)c2nnn3c2nc(NCc2cccs2)c2sccc23)cc1` [UTBinh-14, [3-(4-Ethyl-benzenesulfonyl)-thieno[2,3-e][1,2,3]triazolo[1,5-a]pyrimidin-5-yl]-thiophen-2-ylmethylamine] was tested, and the “inhibition of UT-B facilitated urea transport” value was “strongly inhibited”.
